According to US8623921B2, “Bis(thio-hydrazide amide) formulation” (Synta Pharmaceuticals Corp., priority 2005, dated 2014):
“Also recorded” adds a separate entry of the source.

Experiments:
[1] = Stability during freeze-drying by reverse-phase HPLC; type: physicochemical
Description: Reverse phase HPLC was used to quantify the potency and purity of; disodium 2-(N′-methyl-N′-thiobenzoyl-hydrazinocarbonyl)-1-(methyl-thiobenzoyl-hydrazono)-ethanolate following freeze-drying. The analysis was performed as detailed in the analytical method.

[2] = DSC analysis of glass transition temperatures (Tg, Tg′); type: physicochemical; conditions: compound itself
Description: Tg′ and Tg were evaluated using a PYRIS Diamond DSC. Samples for Tg′ determination were prepared by loading 50 μL of sample into a 500 μL aluminum pan, then sealing the pan using the sealing press. The thermal program used to identify Tg′ (without annealing) was: • 1. Ramp from 20° C. to −50° C. at 10° C./min • 2. Hold at −50° C. for 4 minutes • 3. Ramp from −50° C. to 20° C. at 10° C./min The thermal program used to identify Tg′ that included an annealing step was: • 1. Ramp from 20° C. to −45° C. at 10° C./min • 2. Hold at −45° C. for 10 minutes • 3. Ramp from −45° C. to −8° C. at 10° C./min • 4. Hold at −8° C. for 1 hour • 5. Ramp from −8° C. to −70° C. at 10° C./min • 6. Hold at −70° C. for 5 minutes • 7. Ramp from −70° C. to 20° C. at 10° C./min Tg′ was taken to be the midpoint of the transition.
Freeze-dried samples used in the determination of […] ramped the temperature from 25° C. to 150° C. at 10° C./min.

main peak purity ([1]; RP-HPLC after freeze-drying, on average) [%]	Tg (glass transition temperature) [2] [°C]	SMILES	stability during freeze-drying ([1]; reverse-phase HPLC, all freeze-drying cycles tested)
97	–	CN(NC(=O)CC(=O)NN(C)C(=S)c1ccccc1)C(=S)c1ccccc1 [disodium 2-(N′-methyl-N′-thiobenzoyl-hydrazinocarbonyl)-1-(methyl-thiobenzoyl-hydrazono)-ethanolate]	stable through all of the freeze-drying cycles tested, as no degradation products were detected; also recorded: did not adversely affect the stability
–	−44.7	CN(/N=C(\O)C/C(O)=N/N(C)C(=S)c1ccccc1)C(=S)c1ccccc1 [Structural Formula, (II)]	–
